The values that follow come from US8148531B2 (Chroma Therapeutics Ltd., priority 2005, dated 2012).

Each structure is given as a SMILES string. Bounds are passed on as bounds.

Experiment [1] deals with T1, Aurora-A (Homo sapiens, UniProt O14965).
T1 sequence (O14965 1-403): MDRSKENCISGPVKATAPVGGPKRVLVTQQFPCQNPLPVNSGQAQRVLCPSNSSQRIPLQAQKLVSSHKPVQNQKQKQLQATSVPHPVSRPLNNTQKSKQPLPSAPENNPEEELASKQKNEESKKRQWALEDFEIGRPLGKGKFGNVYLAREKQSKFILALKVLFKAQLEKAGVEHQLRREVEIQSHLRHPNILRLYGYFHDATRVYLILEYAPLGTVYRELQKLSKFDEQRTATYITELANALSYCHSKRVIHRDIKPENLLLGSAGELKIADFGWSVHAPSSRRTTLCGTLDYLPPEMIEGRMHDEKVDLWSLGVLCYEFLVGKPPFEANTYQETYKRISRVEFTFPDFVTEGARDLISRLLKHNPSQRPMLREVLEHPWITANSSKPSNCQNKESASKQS
The experiment in a line: Aurora-A enzyme assay (MBP-coated Flashplate, γ-33P-ATP). The class given is biochemical. The note with it: IC50 range class; read-out: Inhibitor Activity vs Aurora-A. The method, then: (§1) The ability of compounds to inhibit Aurora-A activity was measured using a simple microplate assay for Aurora-A activity, also suitable for high-throughput screening. In brief, γ-^33P-ATP and Aurora-A were incubated in a myelin basic protein (MBP)-coated Flashplate® to generate a scintillation signal. The plates were formatted to contain the inhibitor, controls, positive control (staurosporin) and blanks. After incubation at 37° C. for 1 hour and a subsequent wash procedure, the plates were read on a TopCount-NXT™.
The 384-well basic Flashplate® and the γ-^33P-ATP were obtained from PerkinElmer Life Sciences, Boston, Mass.
(§2) IC50 values were determined by non-linear regression analysis, after fitting the data point results to the equation for sigmoidal dose response with variable slope (% activity against log concentration of compound), using Graphpad Prism software.
Full experimental procedure for this assay can be found within the following reference: Sun, C Journal of Biomolecular Screening 9(5), 2004, 391.

Experiment [2] relates to U937 cell line. The experiment in a line: Cell inhibition assay (SRB cell viability), U937. The class given is cell-based. As to conditions: Homo sapiens, U-937, IC50 range class, 72 h, read-out: Inhibitor Activity vs U937 cell line. In outline:
(§3)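 Log-phase cells seeded at 1000 cells/well, grown 24 h, then exposed to compounds (20 uM final) for 72 h. Viability read by sulphorhodamine B staining as % inhibition versus DMSO; IC50 from eight-point sigmoidal variable-slope fit.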

In experiment [3] the test system is HUT cell line. The experiment in a line: Cell inhibition assay (SRB cell viability), HUT. The class given is cell-based. As to conditions: IC50 range class, 72 h, read-out: Inhibitor Activity vs HUT cell line. A digest of the protocol: as §3
For experiment [4], the system named is HCT 116 cell line. The experiment in a line: Cell inhibition assay (SRB cell viability), HCT 116. The class given is cell-based. The note with it: Homo sapiens, IC50 range class, 72 h, read-out: Inhibitor Activity vs HCT 116 cell line. In outline: as §3
Experiment [5] has as its target Aurora-B (Homo sapiens, UniProt Q96GD4). The experiment in a line: Aurora-B enzyme assay (identical protocol as Aurora-A). As to conditions: IC50 range class; read-out: Inhibitor Activity vs Aurora-B. The class given is biochemical. The method, then:
as §1, §2
The Aurora-B enzyme assay follows the identical protocol as Aurora-A.

Aurora-B, sequence (Q96GD4 whole entry): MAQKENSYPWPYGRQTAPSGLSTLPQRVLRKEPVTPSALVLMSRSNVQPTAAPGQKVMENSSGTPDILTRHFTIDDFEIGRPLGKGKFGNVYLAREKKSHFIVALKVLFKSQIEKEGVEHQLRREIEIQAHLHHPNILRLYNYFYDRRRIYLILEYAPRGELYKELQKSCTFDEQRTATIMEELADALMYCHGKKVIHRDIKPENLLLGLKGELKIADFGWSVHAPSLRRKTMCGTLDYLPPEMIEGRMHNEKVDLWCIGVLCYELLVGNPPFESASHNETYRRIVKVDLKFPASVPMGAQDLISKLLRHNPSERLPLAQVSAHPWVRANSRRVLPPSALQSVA

For `COc1cc2c(Nc3ccc(NC(=O)c4ccccc4)cc3)c(C#N)cnc2cc1OCC[C@H](NC(=O)OC(C)(C)C)C(=O)OC1CCCC1` [Example 28], the IC50 in experiment [1] was more than 5000 nM; in experiment [2], less than 1000 nM; in experiment [3] it was 1000 to 5000 nM; in experiment [4], more than 5000 nM.
For `COc1cc2c(Oc3ccc(NC(=O)Nc4ccc(C(F)(F)F)cc4)cc3F)ccnc2cc1OCCC[C@@H](N)C(=O)O` [Example 124, (R)-2-Amino-5-(4-{2-fluoro-4-[3-(4-trifluoromethyl-phenyl)-ureido]-phenoxy}-6-methoxy-quinolin-7-yloxy)-pentanoic acid], the IC50 in experiment [5] and in experiment [1] was less than 2000 nM in each case.
As for `COc1cc2c(Oc3ccc(NC(=O)c4ccccc4)cc3)ccnc2cc1OCC[C@H](NC(C)=O)C(=O)O` [Example 43, (S)-2-Acetylamino-4-[4-(4-benzoylamino-phenoxy)-6-methoxy-quinolin-7-yloxy]-butyric acid], the IC50 in experiment [5] and in experiment [1] was less than 2000 nM each time.
As for `COc1cc2nccc(Oc3ccc(NC(=O)c4ccccc4)cc3)c2cc1OCC[C@H](N)C(=O)O` [Example 36, (S)-2-Amino-4-[4-(4-benzoylamino-phenoxy)-7-methoxy-quinolin-6-yloxy]-butyric acid], the IC50 is 2000 to 5000 nM in experiment [5] and less than 2000 nM in experiment [1].
On to `COc1cc2c(Nc3cnc(NC(=O)c4ccccc4)nc3)ccnc2cc1OCC[C@H](N)C(=O)O` [Example 26, (S)-2-Amino-4-[4-(2-benzoylamino-pyrimidin-5-ylamino)-6-methoxy-quinolin-7-yloxy]-butyric acid], for which the IC50 in experiment [5] is 2000 to 5000 nM; in experiment [1] it was less than 2000 nM.
The corresponding values for `COc1cc2c(Oc3ccc(NCc4ccccc4)cc3)ccnc2cc1OCC[C@H](N)C(=O)O` [Example 139, (S)-2-Amino-4-[4-(4-benzylamino-phenoxy)-6-methoxy-quinolin-7-yloxy]-butyric acid] are 2000 to 5000 nM and 2000 to 5000 nM.
On to `COc1cc2c(Oc3ccc(NC(=O)Nc4ccc(C(F)(F)F)cc4)cc3)ccnc2cc1OCC[C@H](N)C(=O)O` [Example 94, (S)-2-Amino-4-(6-methoxy-4-{4-[3-(4-trifluoromethyl-phenyl)-ureido]-phenoxy}-quinolin-7-yloxy)-butyric acid], for which the IC50 in experiment [5] and in experiment [1] was less than 2000 nM in each case.
Consider `COc1cc2c(Oc3ccc(NC(=O)c4ccccc4)c(F)c3)ccnc2cc1OCC[C@H](N)C(=O)O` [Example 131, (S)-2-Amino-4-[4-(4-benzoylamino-3-fluoro-phenoxy)-6-methoxy-quinolin-7-yloxy]-butyric acid], for which the IC50 in experiment [5] is 2000 to 5000 nM; in experiment [1], more than 5000 nM.
Consider `COc1cc2c(Oc3ccc(NC(=O)c4ccccc4)cc3)ccnc2cc1OCCC[C@H](N)C(=O)O` [Example 110, (S)-2-Amino-5-[4-(4-benzoylamino-phenoxy)-6-methoxy-quinolin-7-yloxy]-pentanoic acid], for which the IC50 in experiment [5] and in experiment [1] was less than 2000 nM in each case.
Turning to `COc1cc2c(Oc3ccc(NC(=O)c4ccccc4)cc3)ccnc2cc1OCC[C@H](N)C(=O)O` [Example 4, (S)-2-Amino-4-[4-(4-benzoylamino-phenoxy)-6-methoxy-quinolin-7-yloxy]-butyric acid], the IC50 in experiment [5] and in experiment [1] was less than 2000 nM in each case.
With `COc1cc2c(Oc3ccc(NC(=O)c4ccccc4)cc3OC)ccnc2cc1OCC[C@H](N)C(=O)O` [Example 133, (S)-2-Amino-4-[4-(4-benzoylamino-2-methoxy-phenoxy)-6-methoxy-quinolin-7-yloxy]-butyric acid], the IC50 in experiment [5] and in experiment [1] was 2000 to 5000 nM throughout.
With `COc1cc2c(Sc3ccc(NC(=O)c4ccccc4)cc3)ccnc2cc1OCC[C@H](N)C(=O)O` [Example 19, (S)-2-Amino-4-[4-(4-benzoylamino-phenylsulfanyl)-6-methoxy-quinolin-7-yloxy]-butyric acid], the IC50 in experiment [5] and in experiment [1] was less than 2000 nM throughout.
For `COc1cc2c(Oc3ccc(NC(=O)Nc4ccc(C(F)(F)F)cc4)cc3)ccnc2cc1OCCC[C@@H](N)C(=O)O` [Example 120, (R)-2-Amino-5-(6-methoxy-4-{4-[3-(4-trifluoromethyl-phenyl)-ureido]-phenoxy}-quinolin-7-yloxy)-pentanoic acid], the IC50 in experiment [5] and in experiment [1] was less than 2000 nM each time.
`COc1cc2c(Oc3ccc(CC(=O)Nc4ccccc4F)cc3)ccnc2cc1OCC[C@H](N)C(=O)O` [Example 83, (S)-2-Amino-4-(4-{4-[(2-fluoro-phenylcarbamoyl)-methyl]-phenoxy}-6-methoxy-quinolin-7-yloxy)-butyric acid]: the IC50 in experiment [5] was less than 2000 nM; in experiment [1], 2000 to 5000 nM.
The corresponding values for `COc1cc2c(Oc3ccc(C(=O)Nc4ccccc4)cc3)ccnc2cc1OCC[C@H](N)C(=O)O` [Example 78, (S)-2-Amino-4-[6-methoxy-4-(4-phenylcarbamoyl-phenoxy)-quinolin-7-yloxy]-butyric acid] are 2000 to 5000 nM and 2000 to 5000 nM.
Take `COc1ccc(NC(=O)Cc2ccc(Oc3ccnc4cc(OCC[C@H](N)C(=O)O)c(OC)cc34)cc2)cc1` [Example 91, (S)-2-Amino-4-(6-methoxy-4-{4-[(4-methoxy-phenylcarbamoyl)-methyl]-phenoxy}-quinolin-7-yloxy)-butyric acid]: the IC50 in experiment [5] is less than 2000 nM; in experiment [1], 2000 to 5000 nM.
With `COc1cc2c(Oc3ccc(CNC(=O)c4ccccc4)cc3)ccnc2cc1OCC[C@H](N)C(=O)O` [Example 142, (S)-2-Amino-4-{4-[4-(benzoylamino-methyl)-phenoxy]-6-methoxy-quinolin-7-yloxy}-butyric acid], the IC50 in experiment [5] was less than 2000 nM; in experiment [1] it was 2000 to 5000 nM.
As to `COc1cc2c(Oc3ccc(NC(=O)c4ccccc4)cc3)ccnc2cc1OCC[C@H](NC(=O)OC(C)(C)C)C(=O)O` [Example 3], the IC50 in experiment [5] and in experiment [1] was less than 2000 nM each time.
For the compound `COc1cc2nccc(Oc3ccc(NC(=O)c4ccccc4)cc3)c2cc1OCC[C@H](N)C(=O)OC1CCCC1` [Example 35, (S)-2-Amino-4-[4-(4-benzoylamino-phenoxy)-7-methoxy-quinolin-6-yloxy]-butyric acid cyclopentyl ester], the IC50 in experiment [5] was more than 5000 nM; in experiment [2], less than 1000 nM; in experiment [3], 1000 to 5000 nM; in experiment [4], 1000 to 5000 nM.
For the compound `COc1cc2c(Oc3ccc(NC(=O)c4ccccc4)cc3)ccnc2cc1OCC[C@H](NC(C)=O)C(=O)OC1CCCC1` [Example 42, (S)-2-Acetylamino-4-[4-(4-benzoylamino-phenoxy)-6-methoxy-quinolin-7-yloxy]-butyric acid cyclopentyl ester], the IC50 in experiment [5] was 2000 to 5000 nM; in experiment [2] it was less than 1000 nM; in experiment [3], less than 1000 nM; in experiment [4] it was less than 1000 nM.
As for `COc1cc2c(Oc3ccc(NC(=O)C4CC4)cc3)ccnc2cc1OCC[C@H](N)C(=O)OC1CCCC1` [Example 59, (S)-2-Amino-4-{4-[4-(cyclopropanecarbonyl-amino)-phenoxy]-6-methoxy-quinolin-7-yloxy}-butyric acid cyclopentyl ester], the IC50 in experiment [5] was more than 5000 nM; in experiment [2] it was less than 1000 nM; in experiment [3], 1000 to 5000 nM; in experiment [4] it was 1000 to 5000 nM.
With `COc1cc2c(Oc3ccc(NC(=O)c4ccccc4)cc3F)ccnc2cc1OCC[C@H](N)C(=O)OC1CCCC1` [Example 128, (S)-2-Amino-4-[4-(4-benzoylamino-2-fluoro-phenoxy)-6-methoxy-quinolin-7-yloxy]-butyric acid cyclopentyl ester], the IC50 is 2000 to 5000 nM in experiment [5], less than 1000 nM in experiment [2], less than 1000 nM in experiment [3] and less than 1000 nM in experiment [4].
On to `COc1cc2c(Nc3ccc(NC(=O)c4ccccc4)cc3)c(C#N)cnc2cc1OCC[C@H](N)C(=O)OC1CCCC1` [Example 27], for which the IC50 was more than 5000 nM in experiment [1], 1000 to 5000 nM in experiment [2], less than 1000 nM in experiment [3] and 1000 to 5000 nM in experiment [4].
Regarding `COc1cc2c(Oc3ccc(C(=O)Nc4ccccc4)cc3)ccnc2cc1OCC[C@H](N)C(=O)OC1CCCC1` [Example 77, (S)-2-Amino-4-[6-methoxy-4-(4-phenylcarbamoyl-phenoxy)-quinolin-7-yloxy]-butyric acid cyclopentyl ester], the IC50 is more than 5000 nM in experiment [5], 1000 to 5000 nM in experiment [2], 1000 to 5000 nM in experiment [3] and more than 5000 nM in experiment [4].
